Measured values published in paper PMC6271988, “New Potentially Active Pyrazinamide Derivatives Synthesized Under Microwave Conditions” (Molecules, 2014).
Values after ≈ are worked out from the molar mass of the structure shown. Where two headings read alike, the source gives them in different places.

Legend:
[1] = test system: PET in spinach chloroplasts; experiment: Photosynthetic electron transport (PET) inhibition, DCPIP photoreduction; assay type: biochemical, Spinacia oleracea L.; conditions: for IC50: DCPIP photoreduction
Description: The inhibition of photosynthetic electron transport (PET) in spinach chloroplasts was determined spectrophotometrically (Genesys 6, Thermo Scientific, Madison, WI, USA) using an artificial electron acceptor 2,6-dichlorophenol-indophenol (DCPIP). The rate of photosynthetic electron transport was monitored as a photoreduction of DCPIP. Chloroplasts were prepared from Spinacia oleracea L.. The measurements were carried out in phosphate buffer (0.02 mol/L, pH 7.2) containing sucrose (0.4 mol/L), MgCl2 (0.005 mol/L) and NaCl (0.015 mol/L). The chlorophyll concentration was 30 mg/L and the samples were irradiated (~100 W/m^2 with 10 cm distance) with a halogen lamp (250 W). […] The studied compound were dissolved in DMSO due to their limited water solubility. […] The efficiency of studied compounds was expressed as 50% inhibition concentration relative to the untreated control. The standard for these measurements was DCMU (Diurone®).

[2] = test system: Staphylococcus epidermidis; experiment: Antibacterial in vitro screening, microdilution broth method; assay type: cell-based; conditions: 80% inhibition of control
[3] = Lipophilicity HPLC determination (logk); assay type: physicochemical; conditions: HPLC capacity factor, C18, MeOH 70%/H2O 30%, 30 °C
[4] = test system: spectrum of fungi tested (8 fungal strains); experiment: Antifungal evaluation, summary over the fungi tested; assay type: cell-based
Description: (§1) Antifungal evaluation was also accomplished with microdilution broth method. On the contrary, there was used RPMI 1640 broth with glutamine as medium and conditions were humid and dark atmosphere, pH 7.0 (adjusted with 0.165 M morpholinepropanesulfonic acid, MOPS) and 35 °C. 8 fungal strains were used (Candida albicans ATCC 44859, Candida tropicalis 156, Candida krusei E28, Candida glabrata 20/I, Trichosporon asahii 1188, Aspergillus fumigatus 231, Lichtheimia corymbifera 272, Trichophyton mentagrophytes 445) together with four antimycotic standards amphotericin B, voriconazole, nystatin and fluconazole.

[5] = test system: Mycobacterium tuberculosis H37Rv; experiment: Antimycobacterial in vitro screening, microdilution broth panel method, Alamar Blue; assay type: cell-based; conditions: 336 h, M. tuberculosis H37Rv, Middlebrook 7H9, 14 days of incubation
[6] = test system: Aspergillus fumigatus 231; experiment: Antifungal evaluation, microdilution broth method; assay type: cell-based; conditions: AF
Description: as §1

[7] = test system: Candida albicans ATCC 44859; experiment: Antifungal evaluation, microdilution broth method; assay type: cell-based; conditions: CA
Description: as §1

[8] = test system: Lichtheimia corymbifera 272; experiment: Antifungal evaluation, microdilution broth method; assay type: cell-based; conditions: LC
Description: as §1

Trichosporon asahii 1188 = experiment: Antifungal evaluation, microdilution broth method; assay type: cell-based; conditions: TA
Description: as §1

Candida tropicalis 156 = experiment: Antifungal evaluation, microdilution broth method; assay type: cell-based; conditions: CT
Description: as §1

[9] = test system: Trichophyton mentagrophytes 445; experiment: Antifungal evaluation, microdilution broth method; assay type: cell-based; conditions: TM
Description: as §1

Candida glabrata 20/I = experiment: Antifungal evaluation, microdilution broth method; assay type: cell-based; conditions: CG
Description: as §1

Candida krusei E28 = experiment: Antifungal evaluation, microdilution broth method; assay type: cell-based; conditions: CK
Description: as §1

[10] = Aspergillus fumigatus, 231, 24 h
[11] = Aspergillus fumigatus, 231, 48 h
[12] = Candida albicans, ATCC44859, 24 h
[13] = Candida albicans, ATCC44859, 48 h
[14] = Lichtheimia corymbifera, 272, 24 h
[15] = Lichtheimia corymbifera, 272, 48 h
[16] = Trichosporon asahii, 1188, 24 h
[17] = Trichosporon asahii, 1188, 48 h
[18] = Trichophyton mentagrophytes, 445, 72 h
[19] = Trichophyton mentagrophytes, 445, 120 h
[20] = Nakaseomyces glabratus, 20/I, 24 h
[21] = Nakaseomyces glabratus, 20/I, 48 h
[22] = nearly a whole spectrum of fungi tested, after 24 h of incubation, read-out: 80% inhibition of control (IC80), range over fungi

Compound | IC50 [1] [µM] | logk [3] | PET inhibition (result in words) [1] | IC80 [6, 10] [µM] | IC80 [6, 11] [µM] | IC80 [7, 12] [µM] | IC80 [7, 13] [µM] | IC80 [8, 14] [µM] | IC80 [8, 15] [µM] | IC80 (Trichosporon asahii 1188; [16]) [µM] | IC80 (Trichosporon asahii 1188; [17]) [µM] | IC80 (Candida tropicalis 156; Candida tropicalis, 156, 24 h) [µM] | IC80 (Candida tropicalis 156; Candida tropicalis, 156, 48 h) [µM] | IC80 [9, 18] [µM] | IC80 [9, 19] [µM] | IC80 (Candida glabrata 20/I; [20]) [µM] | IC80 (Candida glabrata 20/I; [21]) [µM] | IC80 (Candida krusei E28; Pichia kudriavzevii, E28, 24 h) [µM] | IC80 (Candida krusei E28; Pichia kudriavzevii, E28, 48 h) [µM] | other results
CCCCCNc1nccnc1C(N)=O [Compound 5, 3-(Pentylamino)pyrazine-2-carboxamide] | 38.6 | 0.4563 |  |  |  |  |  |  |  |  |  |  |  |  |  |  |  |  |  | IC80 [2]: < 250 µM; IC80 ([4]; fungi tested, less active than the standards, read-out: IC80 antifungal): ≥ 250 µM
3-(Piperidin-1-ylamino)pyrazine-2-carboxamide [Compound 15] |  | −0.2333 | did not inhibit PET |  |  |  |  |  |  |  |  |  |  |  |  |  |  |  |  | 
NC(=O)c1cnccn1 [pyrazinamide] |  |  |  |  |  |  |  |  |  |  |  |  |  |  |  |  |  |  |  | MIC [5]: 12.5 µg/mL (≈ 102 µM)
C[C@@H]1[C@H](O)[C@@H](C)/C=C/C=C/C=C/C=C/C=C/C=C/C=C/[C@H](O[C@@H]2O[C@H](C)[C@@H](O)[C@H](N)[C@@H]2O)C[C@@H]2O[C@](O)(C[C@@H](O)C[C@@H](O)[C@H](O)CC[C@@H](O)C[C@@H](O)CC(=O)O[C@H]1C)C[C@H](O)[C@H]2C(=O)O [AMP, amphotericin B] |  |  |  | 1.95 | 1.95 | 0.12 | 0.49 | 7.81 | 7.81 | 0.49 | 0.98 | 1.95 | 1.95 | 1.95 | 1.95 | 0.98 | 1.95 | 1.95 | 1.95 | 
NC(=O)c1nccnc1N1CCNCC1 [Compound 18, 3-(Piperazin-1-yl)pyrazine-2-carboxamide] |  | −2.3522 | did not inhibit PET |  |  |  |  |  |  |  |  |  |  |  |  |  |  |  |  | 
CN1CCN(c2nccnc2C(N)=O)CC1 [Compound 17, 3-(4-Methylpiperazin-1-yl)pyrazine-2-carboxamide] |  | −0.4253 | did not inhibit PET |  |  |  |  |  |  |  |  |  |  |  |  |  |  |  |  | 
NC(=O)c1nccnc1NC1CCCCC1 [Compound 12, 3-(Cyclohexylamino)pyrazine-2-carboxamide] | 83 | 0.4523 |  | 15.6 | 62.5 | 31.2 | 62.5 | 250 | 500 | 31.2 | 250 | 125 | 500 | 15.6 | 15.6 | 15.6 | 31.2 | 15.6 | 62.5 | IC80 [4, 22]: 15.6 to 31.2 µM
CCC(C)(C)Nc1nccnc1C(N)=O [Compound 6, 3-(tert-Pentylamino)pyrazine-2-carboxamide] | 480 | 0.5468 |  |  |  |  |  |  |  |  |  |  |  |  |  |  |  |  |  | 
C[C@@H]1[C@H](O)[C@@H](C)/C=C/C=C/CC/C=C/C=C/C=C/C=C/C(O[C@H]2O[C@H](C)[C@@H](O)[C@H](N)[C@@H]2O)CC2O[C@](O)(CC(O)C(O)CCC(O)CC(O)CC(O)CC(=O)O[C@H]1C)CC(O)C2C(=O)O (stereo partly drawn) [NYS, nystatin] |  |  |  |  |  |  |  |  |  |  |  |  |  |  |  |  |  |  |  | IC80 ([6]; 24 h): 1.95 µM; IC80 ([6]; 48 h): 3.9 µM; IC80 ([7]; 24 h): 0.98 µM; IC80 ([7]; 48 h): 1.95 µM; IC80 ([8]; 24 h): 15.6 µM; IC80 ([8]; 48 h): 31.2 µM; IC80 (Trichosporon asahii 1188; 24 h): 1.95 µM; IC80 (Trichosporon asahii 1188; 48 h): 1.95 µM; IC80 (Candida tropicalis 156; 24 h): 1.95 µM; IC80 (Candida tropicalis 156; 48 h): 3.9 µM; IC80 ([9]; 72 h): 3.9 µM; IC80 ([9]; 120 h): 7.81 µM; IC80 (Candida glabrata 20/I; 24 h): 1.95 µM; IC80 (Candida glabrata 20/I; 48 h): 3.9 µM; IC80 (Candida krusei E28; 24 h): 1.95 µM; IC80 (Candida krusei E28; 48 h): 3.9 µM
C[C@@H](c1ncncc1F)[C@](O)(Cn1cncn1)c1ccc(F)cc1F [VOR, voriconazole] |  |  |  | 0.49 | 0.98 | 0.008 | 0.008 | 250 | 250 | 7.81 | 31.2 | 250 | 250 | 0.06 | 0.12 | 250 | 250 | 0.98 | 1.95 | 
CCNc1nccnc1C(N)=O [Compound 2, 3-(Ethylamino)pyrazine-2-carboxamide] |  | −0.2014 | did not inhibit PET |  |  |  |  |  |  |  |  |  |  |  |  |  |  |  |  | 
NC(=O)c1nccnc1NC1CCCCCC1 [Compound 13, 3-(Cycloheptylamino)pyrazine-2-carboxamide] | 19.3 | 0.6575 |  | 7.81 | 7.81 | 15.6 | 31.2 | 62.5 | 250 | 31.2 | 125 | 62.5 | 500 | 15.6 | 15.6 | 7.81 | 15.6 | 7.81 | 31.2 | IC80 [2]: < 250 µM; IC80 [4, 22]: 7.81 to 31.2 µM
